Values joined by “and” are separate entries in the source; they are usually repeats but may differ in a detail not shown here. Equal values may be shown once. Read-outs that look alike come from different tables or passages of the source.
How the values were obtained:
[1] = test system: human patients suffering from secondary Meniere's disease (activated cervical sympathetic nervous system, mild Eustachian tube dysfunction); assay: Clinical treatment of secondary Meniere's disease patients with oral betahistine, electrocochleography (ECochG) SP/AP amplitude ratio and symptoms; format: in vivo
Procedure: Patients, aged 19-70 years, have undergone baseline testing to determine SP/AP amplitude ratio using ECochG in Meniere's disease patients before the start of study treatment. The effect on SP/AP amplitude ratio was evaluated after a predetermined period of treatment with betahistine or a pharmaceutically acceptable salt.
Patients were seated in a swivel chair and the chair rotated while the patient's head was stabilized. Effect of rotational movement was observed and pupil enlargement a determinant of secondary Meniere's disease.
Dose levels included 16 mg of betahistine three time daily for predetermined period. 8 mg dose twice daily thereafter for a second predetermined period.
Patient studies comprise a range of dosing regimens including tablets, powders, sprays. In present studies unless otherwise stated each dose was administered in a tablet form in the morning taken after food.
Route of Administration can include oral and topical delivery. In the present studies unless otherwise stated route of administration was oral delivery.
Audiological evaluations were performed at specified intervals to evaluate the efficacy of Tests performed by physician or qualified audiologist. ECochG was performed at specified intervals by a physician specialist. Patient reported outcomes by self-administered questionnaire included the VSS (Yardley et al. 2004) and the TFI (Meikle et al. 2011). These were scored by study personnel.
Patient was started on oral dosage form of betahistine 16 mg three times daily (tds) for two weeks and reduced to 8 mg once daily thereafter for two months.

[2] = test system: Eustachian tube function in rat model; details: topical application; cited from earlier work
[3] = test system: humans with Eustachian tube dysfunction; details: cited from earlier work
[4] = test system: eustachian tube function in "normal" volunteers; details: cited from earlier work; for effect on eustachian tube function (tympanometry): "normal" volunteers, nasal application
[5] = high concentrations; cited from earlier work
[6] = patient, review at two months of oral betahistine
[7] = patient, two months into oral betahistine treatment

With `CNCCc1ccccn1` [betahistine] the “elevated SP/AP ratio indicating endolymphatic hydrops” value ([1]; all cases of secondary MD treated) was “normalized”, the “Left Ear SP/AP Ratio, Average Ratio” value ([1]; patient, after treatment (before treatment 28.6%)) was “Average Ratio of 16%” and the “Right Ear SP/AP Ratio” value ([1]; patient, after treatment, single traces) was 9% and 18%. The repeat electrocochleograms [1, 6] was “returned to normal levels”, the symptoms at review [1, 6] was “improved significantly” and the repeat electrocochleograms [1, 7] was “returned to normal levels”. The symptoms at review [1, 7] was “improved significantly”, the treatment outcomes ([1]; patients suffering from secondary MD) was “invariably improved treatment outcomes” and the Eustachian tube function ([1]; patients with activated cervical sympathetic nervous system and mild Eustachian tube dysfunction) was “facilitation of Eustachian tube function”. For the same molecule, the Eustachian tube function [2] was “improved”, the result versus placebo [3] was “no greater result than a placebo” and the “effect on eustachian tube function (tympanometry)” value ([4]; at best) was “no effect”. For the same molecule, the “effect on eustachian tube function (tympanometry)” value ([4]; higher dosages) was “Eustachian tube function became worse”, the “mild Eustachian tube dysfunction” value ([4]; volunteers found to have mild Eustachian tube dysfunction) was “not improved” and the toxicity [5] was “nontoxic”.

Reference: patent US11116719B2, “Methods of treating Meniere's disease” (priority 2017, dated 2021)
